Assay results taken from article PMC12136037, “Type II kinase inhibitors that target Parkinson’s disease–associated LRRK2” (Science Advances, 2025).

How the values were obtained:
Experiment in all cases: DSF 100 kinase selectivity screen;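 also: compound tested at 20 µM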
Type in all cases: binding
[1] = biological target: T1, ~100 representative kinases (Homo sapiens, UniProt Q92630); conditions: Protein DYRK2; average of three replicates
T1 construct: Recombinant protein kinase domains with a concentration of 2 μM
T1 sequence (Q92630 1-601): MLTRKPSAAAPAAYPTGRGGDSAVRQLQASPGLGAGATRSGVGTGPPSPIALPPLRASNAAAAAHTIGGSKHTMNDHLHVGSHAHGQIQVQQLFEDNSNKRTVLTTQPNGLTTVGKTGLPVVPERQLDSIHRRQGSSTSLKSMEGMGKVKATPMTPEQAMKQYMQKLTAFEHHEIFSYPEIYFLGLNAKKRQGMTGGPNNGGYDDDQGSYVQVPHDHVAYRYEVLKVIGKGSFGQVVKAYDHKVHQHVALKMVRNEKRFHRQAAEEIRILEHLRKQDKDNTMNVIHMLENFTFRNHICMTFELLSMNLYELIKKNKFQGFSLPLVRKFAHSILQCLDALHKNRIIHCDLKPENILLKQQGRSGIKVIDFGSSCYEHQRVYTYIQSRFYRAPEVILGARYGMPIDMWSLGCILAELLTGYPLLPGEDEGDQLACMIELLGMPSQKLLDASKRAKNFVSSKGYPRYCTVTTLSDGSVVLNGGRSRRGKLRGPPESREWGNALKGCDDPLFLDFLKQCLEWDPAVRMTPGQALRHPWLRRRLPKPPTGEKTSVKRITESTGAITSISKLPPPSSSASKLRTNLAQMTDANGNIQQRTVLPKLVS
How it was run: (§1)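 Each kinase domain, at 2 μM, is mixed with 20 μM test compound and SYPRO Orange in Hepes (20 mM, pH 7.5) with 500 mM NaCl. Temperature is then raised at 3°C/min and fluorescence-monitored unfolding yields the melting temperature change, ΔTm in degrees Celsius.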

[2] = biological target: T2, ~100 representative kinases (Homo sapiens, UniProt Q15375); conditions: Protein EPHA7; average of three replicates
T2 construct: Recombinant protein kinase domains with a concentration of 2 μM
T2 sequence (Q15375 28-998): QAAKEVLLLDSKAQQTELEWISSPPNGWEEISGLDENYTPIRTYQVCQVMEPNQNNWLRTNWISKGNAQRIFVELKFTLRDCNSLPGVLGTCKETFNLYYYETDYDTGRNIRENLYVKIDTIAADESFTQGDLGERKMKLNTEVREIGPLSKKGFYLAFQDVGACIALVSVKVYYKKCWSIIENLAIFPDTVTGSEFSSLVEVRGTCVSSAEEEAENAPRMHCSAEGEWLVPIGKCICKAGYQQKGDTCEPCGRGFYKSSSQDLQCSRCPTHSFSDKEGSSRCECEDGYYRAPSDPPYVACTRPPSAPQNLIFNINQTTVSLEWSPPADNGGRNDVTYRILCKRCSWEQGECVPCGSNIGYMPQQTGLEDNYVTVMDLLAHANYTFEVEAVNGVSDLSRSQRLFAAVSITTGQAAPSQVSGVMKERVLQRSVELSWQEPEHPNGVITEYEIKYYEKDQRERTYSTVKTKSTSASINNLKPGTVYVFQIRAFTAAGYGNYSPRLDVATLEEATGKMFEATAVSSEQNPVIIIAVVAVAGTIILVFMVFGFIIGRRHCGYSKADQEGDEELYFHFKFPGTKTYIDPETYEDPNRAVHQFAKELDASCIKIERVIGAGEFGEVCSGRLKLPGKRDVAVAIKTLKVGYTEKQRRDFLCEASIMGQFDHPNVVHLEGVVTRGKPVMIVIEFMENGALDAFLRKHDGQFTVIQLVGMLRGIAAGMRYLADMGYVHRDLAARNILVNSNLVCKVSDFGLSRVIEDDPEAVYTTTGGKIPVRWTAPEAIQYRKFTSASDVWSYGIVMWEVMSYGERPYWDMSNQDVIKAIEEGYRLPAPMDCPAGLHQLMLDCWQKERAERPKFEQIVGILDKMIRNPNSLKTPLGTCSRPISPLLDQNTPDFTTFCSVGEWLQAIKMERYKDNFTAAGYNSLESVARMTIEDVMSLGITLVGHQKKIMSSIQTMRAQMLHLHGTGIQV
How it was run: as §1

[3] = biological target: T3, ~100 representative kinases (Homo sapiens, UniProt Q13557); conditions: Protein CAMK2D; average of three replicates
T3 construct: Recombinant protein kinase domains with a concentration of 2 μM
T3 sequence (Q13557 whole entry, the tested form may be a part): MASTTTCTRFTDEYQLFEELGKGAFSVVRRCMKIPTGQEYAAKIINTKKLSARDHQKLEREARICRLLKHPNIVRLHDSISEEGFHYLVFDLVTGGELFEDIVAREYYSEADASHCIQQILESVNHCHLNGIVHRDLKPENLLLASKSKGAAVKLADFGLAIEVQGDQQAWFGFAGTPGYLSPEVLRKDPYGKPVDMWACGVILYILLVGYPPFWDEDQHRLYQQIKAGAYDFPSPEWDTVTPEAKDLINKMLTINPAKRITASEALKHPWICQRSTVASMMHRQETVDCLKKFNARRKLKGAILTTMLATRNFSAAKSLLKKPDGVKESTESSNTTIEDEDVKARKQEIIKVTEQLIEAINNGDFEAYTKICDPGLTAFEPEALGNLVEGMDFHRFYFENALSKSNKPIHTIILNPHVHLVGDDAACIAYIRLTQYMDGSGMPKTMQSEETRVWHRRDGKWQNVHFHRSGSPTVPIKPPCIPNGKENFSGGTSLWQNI
How it was run: as §1

[4] = biological target: T4, ~100 representative kinases (Homo sapiens, UniProt O94804); conditions: Protein STK10; DSF; average of three replicates
T4 construct: Recombinant protein kinase domains with a concentration of 2 μM
T4 sequence (O94804 whole entry, the tested form may be a part): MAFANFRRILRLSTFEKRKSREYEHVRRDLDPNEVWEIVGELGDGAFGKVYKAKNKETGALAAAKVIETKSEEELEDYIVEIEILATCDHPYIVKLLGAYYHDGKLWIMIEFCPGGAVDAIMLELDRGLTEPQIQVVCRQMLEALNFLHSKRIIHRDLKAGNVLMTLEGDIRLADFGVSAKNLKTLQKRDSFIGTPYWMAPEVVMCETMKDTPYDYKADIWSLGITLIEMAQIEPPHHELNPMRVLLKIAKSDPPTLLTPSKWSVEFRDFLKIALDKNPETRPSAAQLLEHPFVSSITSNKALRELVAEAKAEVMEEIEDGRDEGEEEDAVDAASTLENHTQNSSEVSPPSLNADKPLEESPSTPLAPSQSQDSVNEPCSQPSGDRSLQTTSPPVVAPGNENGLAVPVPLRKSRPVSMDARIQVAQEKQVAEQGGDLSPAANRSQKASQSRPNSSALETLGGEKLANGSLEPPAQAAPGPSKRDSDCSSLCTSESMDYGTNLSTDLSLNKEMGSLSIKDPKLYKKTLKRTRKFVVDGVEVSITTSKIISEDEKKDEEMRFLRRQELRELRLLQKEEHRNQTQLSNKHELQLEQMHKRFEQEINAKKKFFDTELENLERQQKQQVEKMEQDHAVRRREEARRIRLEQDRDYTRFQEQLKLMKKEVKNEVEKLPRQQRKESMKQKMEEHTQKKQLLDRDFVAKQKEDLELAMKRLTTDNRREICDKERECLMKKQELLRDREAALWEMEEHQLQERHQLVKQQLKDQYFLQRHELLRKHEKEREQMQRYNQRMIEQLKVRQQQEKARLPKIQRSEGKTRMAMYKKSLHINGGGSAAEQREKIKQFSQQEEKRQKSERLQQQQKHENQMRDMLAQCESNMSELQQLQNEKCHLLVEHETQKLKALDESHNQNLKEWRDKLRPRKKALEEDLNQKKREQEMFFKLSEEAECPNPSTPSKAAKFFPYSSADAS
How it was run: as §1

[5] = biological target: T5, ~100 representative kinases (Homo sapiens, UniProt Q96L34); conditions: protein MARK4; average of three replicates
T5 construct: Recombinant protein kinase domains with a concentration of 2 μM
T5 sequence (Q96L34 1-752): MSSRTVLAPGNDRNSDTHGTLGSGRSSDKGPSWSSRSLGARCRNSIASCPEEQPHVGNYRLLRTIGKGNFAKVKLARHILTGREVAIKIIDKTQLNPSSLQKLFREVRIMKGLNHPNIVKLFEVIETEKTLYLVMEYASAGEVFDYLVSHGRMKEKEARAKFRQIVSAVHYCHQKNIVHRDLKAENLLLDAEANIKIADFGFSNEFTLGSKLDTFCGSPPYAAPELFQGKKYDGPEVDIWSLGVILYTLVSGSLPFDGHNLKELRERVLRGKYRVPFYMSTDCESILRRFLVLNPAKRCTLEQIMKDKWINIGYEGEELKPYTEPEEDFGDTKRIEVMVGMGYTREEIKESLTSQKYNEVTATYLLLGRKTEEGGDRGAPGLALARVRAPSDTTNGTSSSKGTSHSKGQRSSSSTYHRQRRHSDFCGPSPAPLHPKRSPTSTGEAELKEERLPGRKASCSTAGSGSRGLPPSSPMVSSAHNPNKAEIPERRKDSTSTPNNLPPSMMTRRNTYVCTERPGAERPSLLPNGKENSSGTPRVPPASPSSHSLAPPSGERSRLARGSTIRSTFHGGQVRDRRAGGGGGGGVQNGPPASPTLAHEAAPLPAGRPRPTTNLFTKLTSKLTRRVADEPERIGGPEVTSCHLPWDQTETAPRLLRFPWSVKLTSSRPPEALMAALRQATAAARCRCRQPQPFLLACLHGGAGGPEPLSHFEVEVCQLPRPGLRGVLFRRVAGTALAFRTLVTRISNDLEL
How it was run: as §1

[6] = biological target: T6, ~100 representative kinases (Homo sapiens, UniProt P53355); conditions: Protein DAPK1; average of three replicates
T6 construct: Recombinant protein kinase domains with a concentration of 2 μM
T6 sequence (P53355 whole entry, the tested form may be a part): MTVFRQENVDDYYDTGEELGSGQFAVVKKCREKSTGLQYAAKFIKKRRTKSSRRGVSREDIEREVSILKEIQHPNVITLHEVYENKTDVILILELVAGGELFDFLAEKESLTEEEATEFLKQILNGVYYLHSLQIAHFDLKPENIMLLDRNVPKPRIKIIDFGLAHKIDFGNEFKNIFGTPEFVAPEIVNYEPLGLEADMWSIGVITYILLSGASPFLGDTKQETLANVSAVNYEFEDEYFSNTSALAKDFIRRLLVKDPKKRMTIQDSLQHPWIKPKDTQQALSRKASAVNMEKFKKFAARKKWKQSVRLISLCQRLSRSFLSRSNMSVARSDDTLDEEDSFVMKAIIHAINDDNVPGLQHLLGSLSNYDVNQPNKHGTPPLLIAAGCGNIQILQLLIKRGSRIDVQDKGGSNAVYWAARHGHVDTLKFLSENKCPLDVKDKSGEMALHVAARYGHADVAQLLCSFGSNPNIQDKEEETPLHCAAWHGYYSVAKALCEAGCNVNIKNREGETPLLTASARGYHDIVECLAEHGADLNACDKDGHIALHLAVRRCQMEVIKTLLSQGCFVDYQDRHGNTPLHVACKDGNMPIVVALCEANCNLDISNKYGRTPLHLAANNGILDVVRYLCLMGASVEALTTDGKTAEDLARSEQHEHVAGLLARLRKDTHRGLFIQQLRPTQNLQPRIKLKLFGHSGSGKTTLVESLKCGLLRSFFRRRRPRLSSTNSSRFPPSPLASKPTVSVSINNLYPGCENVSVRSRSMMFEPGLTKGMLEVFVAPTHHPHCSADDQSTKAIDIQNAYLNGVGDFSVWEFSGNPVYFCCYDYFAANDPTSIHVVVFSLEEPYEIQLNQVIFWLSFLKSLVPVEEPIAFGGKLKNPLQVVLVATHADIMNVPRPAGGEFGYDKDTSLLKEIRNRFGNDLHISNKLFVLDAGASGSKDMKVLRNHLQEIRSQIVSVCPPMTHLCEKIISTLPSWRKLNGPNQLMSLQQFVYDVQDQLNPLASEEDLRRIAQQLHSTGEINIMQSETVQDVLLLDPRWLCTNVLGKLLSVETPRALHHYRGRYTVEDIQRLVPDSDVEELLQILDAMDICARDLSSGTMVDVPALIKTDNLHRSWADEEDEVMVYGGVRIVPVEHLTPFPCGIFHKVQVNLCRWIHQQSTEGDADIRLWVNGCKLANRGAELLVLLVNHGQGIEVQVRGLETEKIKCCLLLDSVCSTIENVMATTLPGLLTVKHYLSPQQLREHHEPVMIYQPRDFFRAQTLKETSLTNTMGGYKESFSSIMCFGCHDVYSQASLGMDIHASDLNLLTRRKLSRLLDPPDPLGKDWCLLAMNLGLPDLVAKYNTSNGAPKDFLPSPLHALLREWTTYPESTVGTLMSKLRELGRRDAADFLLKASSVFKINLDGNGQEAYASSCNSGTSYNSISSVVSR
How it was run: as §1

[7] = biological target: T7, ~100 representative kinases (Homo sapiens, UniProt Q8TD08); conditions: protein MAPK15; average of three replicates
T7 construct: Recombinant protein kinase domains with a concentration of 2 μM
T7 sequence (Q8TD08 1-544): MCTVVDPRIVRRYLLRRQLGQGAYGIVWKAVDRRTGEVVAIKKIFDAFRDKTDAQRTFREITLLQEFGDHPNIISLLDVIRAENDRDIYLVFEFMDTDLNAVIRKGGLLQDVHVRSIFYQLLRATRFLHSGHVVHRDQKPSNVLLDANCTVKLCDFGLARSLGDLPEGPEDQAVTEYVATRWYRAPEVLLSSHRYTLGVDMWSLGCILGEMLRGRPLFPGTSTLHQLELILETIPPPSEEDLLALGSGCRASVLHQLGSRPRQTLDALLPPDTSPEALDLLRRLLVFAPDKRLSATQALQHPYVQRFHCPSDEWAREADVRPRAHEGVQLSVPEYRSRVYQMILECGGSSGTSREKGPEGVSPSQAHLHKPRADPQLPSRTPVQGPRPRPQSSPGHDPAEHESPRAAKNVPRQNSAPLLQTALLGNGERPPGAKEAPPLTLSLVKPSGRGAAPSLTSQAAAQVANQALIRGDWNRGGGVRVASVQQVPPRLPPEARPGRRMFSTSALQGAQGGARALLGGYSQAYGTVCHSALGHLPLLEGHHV
How it was run: as §1

[8] = biological target: T8, ~100 representative kinases (Homo sapiens, UniProt P45985); conditions: protein MAP2K4; average of three replicates
T8 construct: Recombinant protein kinase domains with a concentration of 2 μM
T8 sequence (P45985 1-399): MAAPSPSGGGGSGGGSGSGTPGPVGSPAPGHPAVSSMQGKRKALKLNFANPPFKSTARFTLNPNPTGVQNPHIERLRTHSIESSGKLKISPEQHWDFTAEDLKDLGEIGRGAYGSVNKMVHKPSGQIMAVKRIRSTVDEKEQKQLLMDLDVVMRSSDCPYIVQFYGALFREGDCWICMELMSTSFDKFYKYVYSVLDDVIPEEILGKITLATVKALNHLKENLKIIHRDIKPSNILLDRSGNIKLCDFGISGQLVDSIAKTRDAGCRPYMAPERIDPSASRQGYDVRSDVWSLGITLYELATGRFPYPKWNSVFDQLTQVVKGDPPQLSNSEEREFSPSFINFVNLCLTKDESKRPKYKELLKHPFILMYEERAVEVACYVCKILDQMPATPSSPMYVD
How it was run: as §1

Row | dTm [1] [K] | dTm [2] [K] | dTm [3] [K] | dTm [4] [K] | dTm [5] [K] | dTm [6] [K] | dTm [8] [K] | Compound | dTm [7] [K]
1 | 7.92 | -1.78 | 0.07 | 12.98 | 3.91 | -0.33 | 4.96 | O=C(Nc1ccc(F)cc1)C1(C(=O)Nc2cccc(-c3c[nH]c4ncnc(N5CCOCC5)c34)c2)CC1 [Compound 2] | 10.01
2 | 4.30 | 1.36 | 0.60 | 10.54 | 0.00 | -0.99 | 5.91 | O=C(Nc1cccc(-c2c[nH]c3ncnc(N4CCOCC4)c23)c1)C1(C(=O)Nc2cccc3c2CCC3)CC1 [Compound 11] | 5.24
3 | 6.15 | -1.64 | 0.39 | 11.85 | 3.45 | 0.18 | 5.86 | O=C(Nc1ccccc1)C1(C(=O)Nc2cccc(-c3c[nH]c4ncnc(N5CCOCC5)c34)c2)CC1 [Compound 12] | 8.68
4 | 9.27 | 0.19 | 1.12 | 14.64 | 5.82 | 0.12 | 6.61 | O=C(Nc1ccc(Cl)cc1)C1(C(=O)Nc2cccc(-c3c[nH]c4ncnc(N5CCOCC5)c34)c2)CC1 [Compound 13] | 9.74
5 | 6.23 | -1.63 | 0.26 | 11.44 | 3.97 | -0.92 | 5.95 | Cc1ccc(NC(=O)C2(C(=O)Nc3cccc(-c4c[nH]c5ncnc(N6CCOCC6)c45)c3)CC2)cc1 [Compound 14] | 5.81
6 | 7.75 | -1.27 | 0.36 | 13.86 | 3.95 | -0.77 | 5.80 | O=C(Nc1cccc(-c2c[nH]c3ncnc(N4CCOCC4)c23)c1)C1(C(=O)Nc2ccc(F)c(F)c2)CC1 [Compound 17] | 10.37
7 | 9.51 | 0.26 | 0.66 | 15.34 | 4.93 | -0.23 | 6.47 | O=C(Nc1cccc(-c2c[nH]c3ncnc(N4CCOCC4)c23)c1)C1(C(=O)Nc2ccc(F)c(Cl)c2)CC1 [Compound 18] | 12.35
8 | 3.42 | 2.85 | 1.25 | 16.12 | 5.43 | -1.32 | 6.16 | O=C(Nc1cccc(-c2c[nH]c3ncnc(N4CCOCC4)c23)c1)C1(C(=O)Nc2ccc(F)c(Br)c2)CC1 [Compound 19] | 11.25

Further lines, the compound ahead of its results:

Row | Compound | dTm [1] [K] | dTm [2] [K] | dTm [3] [K] | dTm [4] [K] | dTm [5] [K] | dTm [6] [K] | dTm [8] [K] | dTm [7] [K]
9 | Cc1ccc(C(=O)Nc2ccc(CN3CCN(C)CC3)c(C(F)(F)F)c2)cc1C#Cc1c[nH]c2ncnc(N3CCOCC3)c12 [Compound 1] | 3.91 | 1.10 | 0.30 | 14.26 | 1.18 | 0.30 | 7.64 | 8.49
10 | O=C(Nc1cccc(-c2c[nH]c3ncnc(N4CCOCC4)c23)c1)c1cccn(-c2ccc(F)cc2)c1=O [Compound 4] | 6.24 | -1.83 | -0.31 | 11.47 | 3.88 | -0.50 | 6.40 | 7.29
11 | Cc1cc(NC(=O)C2(C(=O)Nc3ccc(F)cc3)CC2)cc(-c2c[nH]c3ncnc(N4CCOCC4)c23)c1 [Compound 6] | 5.04 | 1.69 | 0.64 | 11.03 | -6.12 | -0.31 | 3.77 | 5.91
12 | CCc1ccc(NC(=O)C2(C(=O)Nc3cccc(-c4c[nH]c5ncnc(N6CCOCC6)c45)c3)CC2)cc1 [Compound 15] | 4.76 | -2.17 | 0.37 | 12.89 | 4.84 | -0.75 | 6.81 | 5.20
13 | COc1ccc(NC(=O)C2(C(=O)Nc3cccc(-c4c[nH]c5ncnc(N6CCOCC6)c45)c3)CC2)cc1 [Compound 16] | 3.09 | -2.77 | -0.55 | 7.29 | 2.27 | -0.99 | 3.98 | 2.17
14 | Cc1ccc(C(=O)Nc2ccc(CN3CCN(C)CC3)c(C(F)(F)F)c2)cc1C#Cc1cnc2[nH]ncc2c1 [GZD-824, reference compound] | 4.99 | 1.51 | -0.21 |  | 1.02 | 0.59 | 1.62 | 5.29
15 | Cc1ccc(C(=O)Nc2ccc(CN3CCN(C)CC3)c(C(F)(F)F)c2)cc1C#Cc1cnc2cccnn12 [Ponatinib, reference compound] |  |  |  |  | -0.48 |  |  | 
16 | CN[C@@H]1C[C@H]2O[C@@](C)([C@@H]1OC)n1c3ccccc3c3c4c(c5c6ccccc6n2c5c31)C(=O)NC4 [Staurosporine] |  | 12.09 |  | 22.21 | 15.90 | 9.84 |  | 
